Results reported in US5674909A, “Derivatives of 2-amino-1,2,3,4-tetrahydronaphthalene active on the cardiovascular system” (Zambon Group, priority 1994, dated 1997).

Columns and labels:
[1] = biological target: D1 receptor (Rattus norvegicus, UniProt P18901); assay: biochemical; format: binding, rat (Sprague-Dawley); settings: [3H]-SCH23390 0.2 nM, rat striated membranes, pH 7.4, 37° C., 20 minutes; read-out: Affinity [K1 (nM)] towards D1 receptor
Method: (§1) The tissue were homogenized in 50 mM Tris/HCl buffer at pH 7.4 (1:100 w/v).
(§2) The homogenate was centrifuged and the pellet resuspended, recentrifuged and resuspended again in 50 mM Tris/HCl buffer at pH 7.4 containing 120 mM NaCl, 5 mM KCl, 2 mM CaCl2 and 1 mM MgCl2.
The mixture was incubated with different concentrations of the tested compounds at 37° C. for 20 minutes, filtered under vacuum through Whatman GF/C filters and then washed 4 times with 5 ml of 50 mM Tris/HCl buffer (pH 7.4) cooled with ice.

[2] = biological target: T1, D2 -like (Rabbit Ear Artery) (Oryctolagus cuniculus, UniProt G1T1Q0); assay: D2-like activity in the Rabbit Ear Artery (REA) test; design: species or system New Zealand rabbit; settings: agonist activity at the peak of the effect; electrically stimulated
T1 construct: the central ear artery was dissected into 3 mm long rings; from tissue; host or cells: rabbit central ear artery rings (male New Zealand rabbits), electrically stimulated
Method: Arterial rings were prepared according to the method described by Steinsland et al., Science, 1978, 443, 199, modified as follows. Male New Zealand rabbits weighing 2.5-3 Kg were sacrificed by intravenous injection of an excess of pentobarbital sodium and exsanguinated. The two ears were taken away and the central ear artery was dissected into 3 mm long rings.
These preparations were set up in a 25 ml organ bath containing Krebs solution (mM/l): NaCl 118, KCl 4.7, CaCl2 2.5, MgSO4 1.2, NaHCO3 25, KH2 PO4 1.2, glucose 11.1, equilibrated with 95% 02 -5% CO2 and maintained at 35°±1° C.
Krebs solution was medicated with EDTA (10 μM) to prevent cathecolamine oxydation, desipramine (0.1 μM) and corticosterone (30 μM), to block neuronal and extraneuronal cathecolamine uptake. The preparations were electrically stimulated (10 Hz, 1 msec, 40-80 mA, 500 msec duration) at 5 minutes intervals.
(§3) The tested compounds were cumulatively administered.
(§4) Ref. A was used as reference substance.
(§5) Agonist activity evaluated at the peak of the effect and expressed as potency ratio (EC50 of Ref. A/EC50 of tested compound) is reported in table 2.

[3] = biological target: D2 receptor (Rattus norvegicus, UniProt P61169); assay: biochemical; format: binding, rat (Sprague-Dawley); settings: [3H]-domperidone 0.3 nM, rat striated membranes, 0.01% BSA, 37° C., 30 minutes; read-out: Affinity [K1 (nM)] towards D2 receptor
Method: as §1, §2
Furthermore, bovine serum albumine (BSA) (0.01%) was added.
The mixture was incubated at 37° C. for 30 minutes for each concentration of tested compounds.

[4] = test system: D1 -like (Rabbit Splenic Artery); assay: D1-like activity in the Rabbit Splenic Artery (RSA) test; settings: agonist activity at the peak of the effect; contracted with U46619 0.1 μM
Method: Arterial rings were prepared according to Semeraro et al., Naunyn. Schmied. Arch. Pharmacol., 1990, 342, 539.
The arterial preparations were contracted with U46619 (9,11-di-deoxy-11α,9α-epoxy-methanoprostaglandin F2α) at the submaximal concentration 0.1 μM.
as §3, §4, §5

[5] = test system: spontaneously hypertensive rats; assay: In vivo antihypertensive activity, i.v., spontaneously hypertensive rats; design: species or system rat (spontaneously hypertensive, Charles River); settings: 30 nmol/kg i.v. bolus; recorded over 4 hours; basal MBP 190-200 mmHg; Ref. A n = 6, Compound 22 n = 7
Method: Male spontaneously hypertensive rats (Charles River) more than 14 weeks old were used.
Catheters were inserted into the right carotid artery and into the left giugular vein under barbituric anesthesia.
The animals were allowed to recover overnight.
The tested compounds were administered into the left giugular vein by bolus injection.
Control animals were injected with an equal volume of vehicle. The induced effect was continuously recorded over a period of 4 hours.
Basal values of Mean Blood Pressure (MBP) were in the range of 190-200 mmHg.
The antihypertensive activity of compound 22 expressed as MBP reduction compared with the antihypertensive activity of Ref. A is reported in the following table.

[6] = Fitton and Benfield, Drugs 1990; cited from earlier work
[7] = test system: dopaminergic receptors; settings: Fitton and Benfield, Drugs 1990; cited from earlier work

T1 sequence (G1T1Q0 1-443): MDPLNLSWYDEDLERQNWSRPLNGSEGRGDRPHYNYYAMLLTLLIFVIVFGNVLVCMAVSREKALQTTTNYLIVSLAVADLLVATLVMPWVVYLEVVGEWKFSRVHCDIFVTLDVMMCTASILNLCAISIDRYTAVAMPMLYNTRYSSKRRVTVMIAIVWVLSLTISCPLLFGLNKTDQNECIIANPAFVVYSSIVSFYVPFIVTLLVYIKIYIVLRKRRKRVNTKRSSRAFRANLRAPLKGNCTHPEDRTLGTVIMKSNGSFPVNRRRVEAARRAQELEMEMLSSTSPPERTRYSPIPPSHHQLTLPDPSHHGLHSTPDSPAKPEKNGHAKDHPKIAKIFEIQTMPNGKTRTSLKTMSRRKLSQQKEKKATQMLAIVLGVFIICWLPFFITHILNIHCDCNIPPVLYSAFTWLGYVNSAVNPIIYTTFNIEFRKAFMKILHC
D1 receptor, sequence (P18901 whole entry): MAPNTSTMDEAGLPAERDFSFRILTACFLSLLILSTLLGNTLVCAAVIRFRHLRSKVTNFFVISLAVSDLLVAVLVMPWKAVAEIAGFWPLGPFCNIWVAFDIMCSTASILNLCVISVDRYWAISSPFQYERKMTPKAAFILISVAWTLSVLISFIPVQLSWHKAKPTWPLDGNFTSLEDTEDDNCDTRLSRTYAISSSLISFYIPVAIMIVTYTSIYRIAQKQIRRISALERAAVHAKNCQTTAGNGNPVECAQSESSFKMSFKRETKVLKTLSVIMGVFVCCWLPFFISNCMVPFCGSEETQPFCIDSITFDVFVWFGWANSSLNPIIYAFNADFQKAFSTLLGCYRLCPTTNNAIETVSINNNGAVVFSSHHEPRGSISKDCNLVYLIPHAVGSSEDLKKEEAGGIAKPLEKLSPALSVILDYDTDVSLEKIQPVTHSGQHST
D2 receptor, sequence (P61169 whole entry): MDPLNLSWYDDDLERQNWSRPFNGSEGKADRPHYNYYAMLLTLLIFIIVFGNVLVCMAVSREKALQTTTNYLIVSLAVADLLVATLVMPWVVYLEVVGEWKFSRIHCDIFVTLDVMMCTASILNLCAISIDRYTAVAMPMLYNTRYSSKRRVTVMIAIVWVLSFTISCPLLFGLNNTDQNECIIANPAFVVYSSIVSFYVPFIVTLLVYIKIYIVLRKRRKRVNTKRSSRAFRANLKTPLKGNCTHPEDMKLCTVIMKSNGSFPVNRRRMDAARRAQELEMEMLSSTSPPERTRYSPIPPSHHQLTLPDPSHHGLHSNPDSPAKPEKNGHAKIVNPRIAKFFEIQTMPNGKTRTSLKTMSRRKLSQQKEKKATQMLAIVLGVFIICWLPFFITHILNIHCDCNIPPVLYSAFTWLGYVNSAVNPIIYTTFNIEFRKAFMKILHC

Structure (SMILES) | Ki [1] [nM] | D2 -like (REA) potency ratio (EC50 of Ref. A/EC50 of tested compound) [2] | Ki [3] [nM] | D1 -like (RSA) potency ratio (EC50 of Ref. A/EC50 of tested compound) [4] | MBP reduction, mean ± S.E. [5] [mmHg] | absorption when administered by oral route [6] | agonist activity at dopaminergic receptors compared with dopamine [7]
Br.Br.CCCN(CCCCCCN1CCc2cc(O)c(O)cc2C1)[C@H]1CCc2c(ccc(O)c2O)C1 [Compound 10, (S)-N-propyl-N-[6-(6,7-dihydroxy-1,2,3,4-tetrahydroisoquinolin-2-yl)hexyl]-5,6-dihydroxy-1,2,3,4-tetrahydro-2-naphthylamine dihydrobromide] | 117 | 2 | 0.6 | 1.4 | – | – | –
Br.Br.CCCN(CCCCCCNCCCc1ccc(O)c(O)c1)[C@H]1CCc2c(ccc(O)c2O)C1 [Compound 13, (S)-N-propyl-N-[6-[3-(3,4-dihydroxyphenyl)propylamino]hexyl]-5,6-dihydroxy-1,2,3,4-tetrahydro-2-naphthylamine dihydrobromide] | 29 | 14 | 0.4 | 10 | – | – | –
Br.Br.Br.CCCN(CCCCCCN1CCN(Cc2ccc(O)cc2)CC1)[C@H]1CCc2c(ccc(O)c2O)C1 [Compound 15, (S)-N-propyl-N-[6-[4-(4-hydroxyphenylmethyl)piperazin-1-yl]hexyl]-5,6-dihydroxy-1,2,3,4-tetrahydro-2-naphthylamine trihydrobromide] | 119 | 0.5 | 0.24 | 0.9 | – | – | –
Br.Br.CCCN(CCCCCCNCCCc1ccccc1O)[C@H]1CCc2c(ccc(O)c2O)C1 [Compound 16, (S)-N-propyl-N-[6-[3-(2-hydroxyphenyl)propylamino]hexyl]-5,6-dihydroxy-1,2,3,4-tetrahydro-2-naphthylamine dihydrobromide] | 178 | 0.8 | 0.2 | 3 | – | – | –
Br.Br.CCCN(CCCCCCNCCc1ccc(S(C)(=O)=O)cc1)[C@H]1CCc2c(ccc(O)c2O)C1 [Compound 22, (S)-N-propyl-N-[6-[2-(4-methylsulphonylphenyl)ethylamino]hexyl]-5,6-dihydroxy-1,2,3,4-tetrahydro-2-naphthylamine dihydrobromide] | – | 3 | – | 14 | -61.7 ± 5.7 | – | –
CCCN(CCCCCCNCCOc1ccc(O)cc1)[C@H]1CCc2c(ccc(O)c2O)C1.Cl.Cl [Compound 24, (S)-N-propyl-N-[6-[2-(4-hydroxyphenoxy)ethylamino]hexyl]-5,6-dihydroxy-1,2,3,4-tetrahydro-2-naphthylamine dihydrochloride] | 45 | 3 | 1.8 | 17 | – | – | –
CCCN(CCCCCCOCCc1ccc(O)c(O)c1)[C@H]1CCc2c(ccc(O)c2O)C1.Cl [Compound 25, (S)-N-propyl-N-[6-[2-(3,4-dihydroxyphenyl)ethoxy]hexyl]-5,6-dihydroxy-1,2,3,4-tetrahydro-2-naphthylamine hydrochloride] | 130 | 1.3 | 0.6 | 1.7 | – | – | –
Br.CCCN(CCCCCCNC(=O)Cc1ccc(O)c(O)c1)[C@H]1CCc2c(ccc(O)c2O)C1 [Compound 34, (S)-N-propyl-N-[6-[(3,4-dihydroxyphenyl)acetylamino]hexyl]-5,6-dihydroxy-1,2,3,4-tetrahydro-2-naphthylamine hydrobromide] | 356 | 5 | 2.1 | 2.5 | – | – | –
NCCc1ccc(O)c(O)c1 [Dopamine] | – | – | – | – | – | not absorbed when administered by oral route | –
Oc1ccc(CCNCCCCCCNCCc2ccccc2)cc1O [Dopexamine, dopexamine] | – | – | – | – | – | not absorbed when administered by oral route | less active than dopamine
CCCN(CCCCCCNCCc1ccccc1OC)[C@H]1CCc2c(ccc(O)c2O)C1.Cl.Cl [Ref. A, (S)-N-propyl-N-[6-[2-(2-methoxyphenyl)ethylamino]hexyl]-5,6-dihydroxy-1,2,3,4-tetrahydro-2-naphthylamine dihydrochloride, reference compound] | 158 | – | 0.8 | 1 | -25 ± 1.1 | – | –
